Values of other authors in US20210147810A1, “SINGLE LUNG CELL-DERIVED ORGANOIDS” (Rutgers, The State University of New Jersey, priority 2017, published 2021).

Tested on: PTPRT-mutant NSCLC
Settings: in vivo

## CC(=O)c1cc2c(o1)C(=O)c1ccccc1C2=O [BBI608]
  anti-tumor activity: effective anti-tumor activity
